Laboratory results as given in ChEMBL document CHEMBL4828763, “Discovery of Potent and Selective CDK9 Degraders for Targeting Transcription Regulation in Triple-Negative Breast Cancer” (J Med Chem, 2021).
Active and inactive are the calls of the source. No cut-off for these calls is given here.

Tests used:
[1] = system: MDA-MB-468; assay: Growth inhibition of human MDA-MB-468 cells assessed as cell viability measured after 4 days by WST8 assay; assay type: functional, cell-based; details: MDA-MB-468, 96 h
[2] = system: BT-549; assay: Growth inhibition of human BT-549 cells assessed as cell viability measured after 4 days by WST8 assay; assay type: functional, cell-based; details: BT-549, 96 h
[3] = system: MDA-MB-231; assay: Growth inhibition of human MDA-MB-231 cells assessed as cell viability measured after 4 days by WST8 assay; assay type: functional, cell-based; details: MDA-MB-231, 96 h
[4] = target: Protein cereblon/Cyclin-dependent kinase 9 (Homo sapiens) (UniProt P50750+Q96SW2); assay: Protac activity at CRBN/CDK9 in human MDA-MB-231 cells assessed as induction of degradation of CDK9 pretreated with MLN4924 at 500 nM incubated for 8 hrs by Western blot analysis; assay type: cell-based
Sequence of Protein cereblon/Cyclin-dependent kinase 9 (Homo sapiens) (P50750 whole entry, looked up): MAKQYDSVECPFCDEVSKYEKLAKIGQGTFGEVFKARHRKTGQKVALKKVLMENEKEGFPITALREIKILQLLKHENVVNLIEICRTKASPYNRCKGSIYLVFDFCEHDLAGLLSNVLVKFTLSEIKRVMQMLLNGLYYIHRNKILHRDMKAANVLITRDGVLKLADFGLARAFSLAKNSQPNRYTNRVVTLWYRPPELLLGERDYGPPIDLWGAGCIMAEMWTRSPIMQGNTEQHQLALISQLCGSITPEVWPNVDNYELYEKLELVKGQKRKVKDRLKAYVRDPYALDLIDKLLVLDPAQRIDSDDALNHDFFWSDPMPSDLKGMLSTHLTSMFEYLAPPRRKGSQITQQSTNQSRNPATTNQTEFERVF
Sequence of Protein cereblon/Cyclin-dependent kinase 9 (Homo sapiens) (Q96SW2 whole entry, looked up): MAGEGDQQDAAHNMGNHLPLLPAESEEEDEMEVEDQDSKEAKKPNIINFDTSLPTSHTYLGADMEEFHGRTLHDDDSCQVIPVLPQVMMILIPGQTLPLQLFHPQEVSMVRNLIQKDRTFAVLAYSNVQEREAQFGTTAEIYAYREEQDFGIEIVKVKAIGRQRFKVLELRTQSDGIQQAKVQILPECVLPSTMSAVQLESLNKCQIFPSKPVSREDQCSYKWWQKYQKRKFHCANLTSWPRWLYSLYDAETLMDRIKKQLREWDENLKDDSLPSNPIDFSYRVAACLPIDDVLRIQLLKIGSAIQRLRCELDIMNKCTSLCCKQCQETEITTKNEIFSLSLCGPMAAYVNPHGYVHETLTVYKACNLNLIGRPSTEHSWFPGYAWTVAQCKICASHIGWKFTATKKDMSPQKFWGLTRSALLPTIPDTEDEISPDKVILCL

[5] = target: Protein cereblon/Cyclin-dependent kinase 1 (Homo sapiens) (UniProt P06493+Q96SW2); assay: Protac activity at CRBN/CDK1 in human MDA-MB-231 cells assessed as induction of degradation of CDK1 at 100 to 500 nM incubated for 4 to 8 hrs by Western blot analysis; assay type: cell-based; details: dose 100-500 nM, time 4-8 hrs
Sequence of Protein cereblon/Cyclin-dependent kinase 1 (Homo sapiens) (P06493 whole entry, looked up): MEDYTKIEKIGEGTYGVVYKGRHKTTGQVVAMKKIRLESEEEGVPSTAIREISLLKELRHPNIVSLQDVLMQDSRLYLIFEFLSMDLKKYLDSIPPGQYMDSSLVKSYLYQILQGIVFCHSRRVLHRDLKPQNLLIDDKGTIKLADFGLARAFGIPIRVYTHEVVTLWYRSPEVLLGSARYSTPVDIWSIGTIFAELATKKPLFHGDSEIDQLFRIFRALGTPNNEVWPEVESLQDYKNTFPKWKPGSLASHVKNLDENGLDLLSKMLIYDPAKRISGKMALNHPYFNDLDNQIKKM
Sequence of Protein cereblon/Cyclin-dependent kinase 1 (Homo sapiens) (Q96SW2 whole entry, looked up): as the sequence (Q96SW2 whole entry, looked up) above

[6] = target: Protein cereblon/Cyclin-dependent kinase 2 (Homo sapiens) (UniProt P24941+Q96SW2); assay: Protac activity at CRBN/CDK2 in human MDA-MB-231 cells assessed as induction of degradation of CDK2 at 100 to 500 nM incubated for 4 to 8 hrs by Western blot analysis; assay type: cell-based; details: dose 100-500 nM, time 4-8 hrs
[7] = target: Protein cereblon/Cyclin-dependent kinase 4 (Homo sapiens) (UniProt P11802+Q96SW2); assay: Protac activity at CRBN/CDK4 in human MDA-MB-231 cells assessed as induction of degradation of CDK4 at 100 to 500 nM incubated for 4 to 8 hrs by Western blot analysis; assay type: cell-based; details: dose 100-500 nM, time 4-8 hrs
Sequence of Protein cereblon/Cyclin-dependent kinase 4 (Homo sapiens) (P11802 2-303 limits assumed): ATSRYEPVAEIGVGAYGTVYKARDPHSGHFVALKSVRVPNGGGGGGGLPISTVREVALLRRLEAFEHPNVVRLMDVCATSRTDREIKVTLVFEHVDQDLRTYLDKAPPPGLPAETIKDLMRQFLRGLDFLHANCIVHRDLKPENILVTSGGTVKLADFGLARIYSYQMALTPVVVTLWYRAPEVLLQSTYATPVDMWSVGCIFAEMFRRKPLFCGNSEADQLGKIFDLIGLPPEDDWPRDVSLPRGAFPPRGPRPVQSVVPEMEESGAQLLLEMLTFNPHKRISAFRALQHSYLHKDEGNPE
Sequence of Protein cereblon/Cyclin-dependent kinase 4 (Homo sapiens) (Q96SW2 whole entry partner): as the sequence (Q96SW2 whole entry, looked up) above

[8] = target: Protein cereblon/Cyclin-dependent kinase 5 (Homo sapiens) (UniProt Q00535+Q96SW2); assay: Protac activity at CRBN/CDK5 in human MDA-MB-231 cells assessed as induction of degradation of CDK5 at 100 to 500 nM incubated for 4 to 8 hrs by Western blot analysis; assay type: cell-based; details: dose 100-500 nM, time 4-8 hrs
Sequence of Protein cereblon/Cyclin-dependent kinase 5 (Homo sapiens) (Q00535 whole entry, looked up): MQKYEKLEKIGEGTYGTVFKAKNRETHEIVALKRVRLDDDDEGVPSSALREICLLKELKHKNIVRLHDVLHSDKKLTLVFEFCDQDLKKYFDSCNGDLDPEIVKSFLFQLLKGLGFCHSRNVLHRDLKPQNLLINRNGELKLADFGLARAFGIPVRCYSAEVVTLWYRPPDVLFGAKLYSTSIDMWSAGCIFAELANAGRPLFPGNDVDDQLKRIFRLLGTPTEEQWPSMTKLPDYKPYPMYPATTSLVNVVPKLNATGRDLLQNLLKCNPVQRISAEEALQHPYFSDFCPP
Sequence of Protein cereblon/Cyclin-dependent kinase 5 (Homo sapiens) (Q96SW2 whole entry, looked up): as the sequence (Q96SW2 whole entry, looked up) above

[9] = target: Protein cereblon/Cyclin-dependent kinase 6 (Homo sapiens) (UniProt Q00534+Q96SW2); assay: Protac activity at CRBN/CDK6 in human MDA-MB-231 cells assessed as induction of degradation of CDK6 at 100 to 500 nM incubated for 4 to 8 hrs by Western blot analysis; assay type: cell-based; details: dose 100-500 nM, time 4-8 hrs
Sequence of Protein cereblon/Cyclin-dependent kinase 6 (Homo sapiens) (Q00534 whole entry, looked up): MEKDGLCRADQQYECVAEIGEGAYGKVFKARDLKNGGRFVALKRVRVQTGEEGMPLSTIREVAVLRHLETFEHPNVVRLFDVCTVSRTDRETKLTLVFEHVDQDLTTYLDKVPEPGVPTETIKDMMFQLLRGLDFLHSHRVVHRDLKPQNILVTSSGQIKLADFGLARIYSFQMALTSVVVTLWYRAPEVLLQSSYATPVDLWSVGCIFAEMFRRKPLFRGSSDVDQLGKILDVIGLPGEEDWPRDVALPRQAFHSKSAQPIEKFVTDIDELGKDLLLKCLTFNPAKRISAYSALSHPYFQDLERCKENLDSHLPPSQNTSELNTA
Sequence of Protein cereblon/Cyclin-dependent kinase 6 (Homo sapiens) (Q96SW2 whole entry, looked up): as the sequence (Q96SW2 whole entry, looked up) above

[10] = target: Protein cereblon/Cyclin-dependent kinase 7 (Homo sapiens) (UniProt P50613+Q96SW2); assay: Protac activity at CRBN/CDK7 in human MDA-MB-231 cells assessed as induction of degradation of CDK7 at 100 to 500 nM incubated for 4 to 8 hrs by Western blot analysis; assay type: cell-based; details: dose 100-500 nM, time 4-8 hrs
Sequence of Protein cereblon/Cyclin-dependent kinase 7 (Homo sapiens) (P50613 whole entry, looked up): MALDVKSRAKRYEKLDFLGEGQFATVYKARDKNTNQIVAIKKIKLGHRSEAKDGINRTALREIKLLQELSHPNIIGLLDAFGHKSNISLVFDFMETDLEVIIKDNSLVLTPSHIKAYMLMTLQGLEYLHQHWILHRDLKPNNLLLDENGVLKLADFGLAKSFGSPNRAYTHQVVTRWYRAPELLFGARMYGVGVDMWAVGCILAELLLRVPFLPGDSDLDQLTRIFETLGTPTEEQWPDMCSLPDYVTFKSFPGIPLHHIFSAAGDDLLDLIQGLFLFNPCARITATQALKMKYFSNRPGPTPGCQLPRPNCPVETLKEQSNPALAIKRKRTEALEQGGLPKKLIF
Sequence of Protein cereblon/Cyclin-dependent kinase 7 (Homo sapiens) (Q96SW2 whole entry, looked up): as the sequence (Q96SW2 whole entry, looked up) above

[11] = target: Protein cereblon/Eukaryotic peptide chain release factor GTP-binding subunit ERF3A (Homo sapiens) (UniProt Q96SW2+P15170); assay: Protac activity at CRBN/GSPT1 in human MDA-MB-231 cells assessed as induction of degradation of GSPT1 incubated for 4 to 8 hrs by Western blot analysis; assay type: cell-based; details: time 4-8 hrs
Sequence of Protein cereblon/Eukaryotic peptide chain release factor GTP-binding subunit ERF3A (Homo sapiens) (P15170 whole entry, looked up): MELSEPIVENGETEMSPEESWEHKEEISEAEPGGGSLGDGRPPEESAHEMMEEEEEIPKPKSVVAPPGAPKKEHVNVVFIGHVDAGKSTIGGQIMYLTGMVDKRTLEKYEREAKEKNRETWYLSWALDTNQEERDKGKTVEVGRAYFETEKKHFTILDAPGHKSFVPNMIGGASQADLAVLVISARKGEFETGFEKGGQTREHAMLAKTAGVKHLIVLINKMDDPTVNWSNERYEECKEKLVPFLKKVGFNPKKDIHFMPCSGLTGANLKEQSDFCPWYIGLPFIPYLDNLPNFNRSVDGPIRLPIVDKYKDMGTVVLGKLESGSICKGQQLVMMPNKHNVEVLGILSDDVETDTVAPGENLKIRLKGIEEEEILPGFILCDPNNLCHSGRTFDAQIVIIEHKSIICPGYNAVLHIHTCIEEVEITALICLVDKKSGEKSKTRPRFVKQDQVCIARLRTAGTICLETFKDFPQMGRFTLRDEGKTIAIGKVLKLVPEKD
Sequence of Protein cereblon/Eukaryotic peptide chain release factor GTP-binding subunit ERF3A (Homo sapiens) (Q96SW2 whole entry, looked up): as the sequence (Q96SW2 whole entry, looked up) above

[12] = system: Tumour; assay: Induction of CDK9 degradation in tumor of human MDA-MB-231 cells xenografted in BALB/c mouse model at 0.15 mM intratumoral injection measured after 16 hrs by Western blot analysis relative to control; assay type: functional, Neoplasm
[13] = system: Tumour; assay: Induction of CDK7 degradation in tumor of human MDA-MB-231 cells xenografted in BALB/c mouse model at 0.15 mM intratumoral injection measured after 16 hrs by Western blot analysis relative to control; assay type: functional, tissue-based; details: Neoplasm
[14] = system: MDA-MB-231; assay: Antitumor activity against human MDA-MB-231 cells xenografted in BALB/c mouse model assessed as decrease in tumor volume at 2.5 mg/kg, intratumoral injection daily for 7 days relative to control; assay type: functional; parameters: scale not given: the % may be the effect or the level left; details: time 7 day
[15] = system: MDA-MB-231; assay: Antitumor activity against human MDA-MB-231 cells xenografted in BALB/c mouse model assessed as decrease in tumor volume at 5 mg/kg, intratumoral injection daily for 7 days relative to control; assay type: functional; parameters: scale not given: the % may be the effect or the level left; details: time 7 day
[16] = Toxicity in BALB/c mouse xenografted with human MDA-MB-231 cells assessed as body weight loss at 2.5 mg/kg, intratumoral injection daily for 7 days; assay type: organism-based; details: in vivo, other, 168 h, time 7 day
[17] = Toxicity in BALB/c mouse xenografted with human MDA-MB-231 cells assessed as body weight loss at 5 mg/kg, intratumoral injection daily for 7 days; assay type: organism-based; details: in vivo, other, 168 h, time 7 day
[18] = system: MDA-MB-231; assay: Antitumor activity against human MDA-MB-231 cells xenografted in BALB/c mouse model assessed as induction of CDK9 degradation in tumor tissue at 2.5 mg/kg, intratumoral injection daily for 7 days by Western blot analysis relative to control; assay type: functional, organism-based; details: time 7.0 day
[19] = system: MDA-MB-231; assay: Antitumor activity against human MDA-MB-231 cells xenografted in BALB/c mouse model assessed as induction of CDK9 degradation in tumor tissue at 5 mg/kg, intratumoral injection daily for 7 days by Western blot analysis relative to control; assay type: functional, organism-based; details: time 7.0 day
[20] = system: Tumour; assay: Effect on CDK7 protein level in tumor of BALB/c mouse xenografted with human MDA-MB-231 cells at 2.5 to 5 mg/kg, intratumoral injection daily for 7 days by Western blot analysis relative to control; assay type: functional, organism-based; details: Neoplasm, dose 2.5-5 mg/kg, time 7.0 day
[21] = system: Tumour; assay: Reduction in CDK9 protein level in tumor of BALB/c mouse xenografted with human MDA-MB-231 cells at 2.5 mg/kg, intratumoral injection daily for 7 days by immunohistochemistry staining analysis relative to control; assay type: functional; details: MDA-MB-231, Neoplasm, 168 h, time 7 day
[22] = system: Tumour; assay: Reduction in CDK9 protein level in tumor of BALB/c mouse xenografted with human MDA-MB-231 cells at 5 mg/kg, intratumoral injection daily for 7 days by immunohistochemistry staining analysis relative to control; assay type: functional; details: MDA-MB-231, Neoplasm, 168 h, time 7 day
[23] = system: Tumour; assay: Reduction in MYC protein level in tumor of BALB/c mouse xenografted with human MDA-MB-231 cells at 2.5 mg/kg, intratumoral injection daily for 7 days by immunohistochemistry staining analysis relative to control; assay type: functional; details: MDA-MB-231, Neoplasm, 168 h, time 7 day
[24] = system: Tumour; assay: Reduction in MYC protein level in tumor of BALB/c mouse xenografted with human MDA-MB-231 cells at 5 mg/kg, intratumoral injection daily for 7 days by immunohistochemistry staining analysis relative to control; assay type: functional; details: MDA-MB-231, Neoplasm, 168 h, time 7 day
[25] = system: Tumour; assay: Reduction in CDK7 protein level in tumor of BALB/c mouse xenografted with human MDA-MB-231 cells at 2.5 mg/kg, intratumoral injection daily for 7 days by immunohistochemistry staining analysis relative to control; assay type: functional; details: MDA-MB-231, Neoplasm, 168 h, time 7 day
[26] = system: Tumour; assay: Reduction in CDK7 protein level in tumor of BALB/c mouse xenografted with human MDA-MB-231 cells at 5 mg/kg, intratumoral injection daily for 7 days by immunohistochemistry staining analysis relative to control; assay type: functional; details: MDA-MB-231, Neoplasm, 168 h, time 7 day
[27] = system: Tumour; assay: Reduction in Ki-67 protein level in tumor of BALB/c mouse xenografted with human MDA-MB-231 cells at 2.5 mg/kg, intratumoral injection daily for 7 days by immunohistochemistry staining analysis relative to control; assay type: functional; details: MDA-MB-231, Neoplasm, 168 h, time 7 day
[28] = system: Tumour; assay: Reduction in Ki-67 protein level in tumor of BALB/c mouse xenografted with human MDA-MB-231 cells at 5 mg/kg, intratumoral injection daily for 7 days by immunohistochemistry staining analysis relative to control; assay type: functional; details: MDA-MB-231, Neoplasm, 168 h, time 7 day

CC[C@@H](CO)Nc1cc(NCc2ccc(NC(=O)N3CCN(CCCCCc4cccc5c4CN(C4CCC(=O)NC4=O)C5=O)CC3)cc2)n2ncc(C(C)C)c2n1 (stereo partly drawn)
IC50 [1]: 15 µM
IC50 [2]: 13.6 µM
IC50 [3]: 3.9 µM
Activity [4]: Active
Activity [5]: inactive
Activity [6]: inactive
Activity [7]: inactive
Activity [8]: inactive
Activity [9]: inactive
Activity [10]: inactive
Activity [11]: inactive
Activity [12]: 54%
Activity [13]: inactive
Activity [14]: 50%
Activity [15]: 50%
Activity [16]: 12.8%
Activity [17]: 13.1%
Activity [18]: Active
Activity [19]: Active
Activity [20]: inactive
inhibition in vivo at 2.5 mg/kg [21]: 62.3%
inhibition in vivo at 5 mg/kg [22]: 90.8%
inhibition in vivo at 2.5 mg/kg [23]: 41%
inhibition in vivo at 5 mg/kg [24]: 76.7%
inhibition in vivo at 2.5 mg/kg [25]: 4%
inhibition in vivo at 5 mg/kg [26]: 12.4%
inhibition in vivo at 2.5 mg/kg [27]: 32.8%
inhibition in vivo at 5 mg/kg [28]: 69.7%
